From US9493483B2, “Benzo [C] isoxazoloazepine bromodomain inhibitors and uses thereof” (Constellation Pharmaceuticals, Inc., priority 2012, dated 2016)
Where two headings read alike, the source gives them in different places. Blank lines part the entries; values can stand above or below the molecule they belong to.

Columns and labels:
[1] = test system: MYC mRNA in MV4:11 (AML) or Raji (Burkitt's lymphoma) cells; test: cMyc RNA quantification assay (QuantiGene); assay type: cell-based; conditions: MV4:11 or Raji cells, 4 h; read-out: MYC Cellular EC50
Method: cMyc RNA Quantification Assay (QuantiGene® Assay):
MV4:11 (AML) or Raji (Burkitt's lymphoma) cells were seeded in a 96-well plate and incubated in the presence of various concentrations of compounds for 4 h. Relative mRNA levels were quantitated by using QuantiGene 2.0 assay (Affymetrix) according to the manufacturer's recommendation. Signals were detected by using an Envision plate reader (Perkin-Elmer). Biological duplicates were averaged and normalized to vehicle (DMSO) control to calculate percent MYC mRNA levels.

BRD4(BD1) = BRD4(BD1) (Homo sapiens (Human), UniProt O60885); test: BRD4 AlphaLisa binding assay; conditions: BRD4(BD1) 30 nM, H4-tetraacetyl peptide 200 nM; read-out: AlphaScreen IC50
Method: IC50 Measurements for Inhibitors Using BRD4 AlphaLisa Binding Assay
His/Flag epitope tagged BRD4 BD142-168 was cloned, expressed and purified to homogeneity. BRD4 binding and inhibition was assessed by monitoring the engagement of biotinylated H4-tetraacetyl peptide (Millipore #12-379) with the target using the AlphaLisa technology (Perkin-Elmer). Specifically, in a 384 well ProxiPlate BRD4(BD1) (30 nM final) was combined with peptide (200 nM final) in 40 mM HEPES (pH 7.0), 40 mM NaCl, 1 mM DTT, 0.01% (w/v) BSA, and 0.008% (w/v) Brij-35 either in the presence of DMSO (final 1.2% DMSO) or compound dilution series in DMSO. After 20 minute incubation at room temperature Alpha streptavidin donor beads and AlphaLisa anti-Flag acceptor beads were added to a final concentration of 10 ug/mL each. After three hours equilibration plates were read on an Envision instrument and IC50s calculated using a four parameter non-linear curve fit.

[2] = test system: IL-6 secretion in LPS-stimulated THP-1 cells; test: Cell-based IL-6 quantification assay (ELISA, Mesoscale); conditions: LPS 4 μg/mL, 16 h, read-out: IL-6 Cellular EC50
Method: Cell-Based IL-6 Quantification Assay (ELISA, Mesoscale Assay):
100,000 THP-1 cells were seeded in RPMI1640-10% FBS in 96-well plates. LPS (E. Coli Invitrogen) in RPMI-10% FBS at a final concentration of 4 μg/mL was added to the wells and the cells are then incubated in the presence of various concentrations of compounds for 16 h. Plates are spun ([…], 5 min), an aliquot of 25 uL supernatant is transferred in to an ELISA plate (Mesoscale technology, MSD) and the detection of IL-6 is performed using manufacturer's instructions. The amount of cells in each well is assessed using CellTiter-Glo® (Promega). The ratio of ELISA value/CellTiter-Glo value is used to calculate the percent of inhibition of IL-6 secretion.

[3] = test system: MV4-11 lymphoblast cell subcutaneous xenograft; test: Tumor growth inhibition in MV4-11 subcutaneous xenograft mouse model; assay type: in vivo; conditions: female nude mice, all cohorts: 1.5-3 mg/kg SC BID/QD, 3-10 mg/kg PO QD (Table 3)
Method: This study investigated the effects of Compound 401 on tumor growth inhibition in an MV4-11 lymphoblast cell subcutaneous xenograft mouse model.
A total number of 120 female nude mice were purchased. These mice were allowed 3 days of acclimatization period before experiments started. The cell suspension was carried to the animal room in an ice box. Mice were implanted subcutaneously (s.c.) with 200 μL of 10×10^6 MV4-11 cells in 50% Matrigel in the right flank at the beginning of the study. All the mice were observed everyday to monitor the health and tumor size.
When tumors reached an average volume of 150-200 mm^3, 100 out of the 120 mice were selected based on their tumor volume and randomly assigned to 10 groups prior to dosing. Each group consisted of 10 tumor-bearing mice (n=10/group).
Tumor-bearing mice were treated with Compound 401 or vehicle, by subcutaneous injection (5 mL/kg) or oral dose (10 mL/kg) starting on the day after randomization for 29 days according to Table 3.
Mice were weighed at each dosing and recorded every day. Mice were observed closely for any overt signs of adverse, treatment-related side effects, which if any were recorded. […] Tumor size was measured three times a week in two dimensions using a caliper, and the tumor volume (V) was expressed in mm^3 using the formula: V=0.5 a×b^2 where a and b were the long and short diameters of the tumor, respectively. […]

KMS11 = test: In vitro cancer cell line growth inhibition (GI50); assay type: cell-based; conditions: Homo sapiens, KMS-11; KMS11, Multiple myeloma, 72 hours, resazurin
Method: (§1) Method for GI50 Determination
(§2) Adherent cells were plated in 96-well plates and the following day compound titrations were added to the cells. Suspensions cells were plated directly in 96-well plates containing compound titrations. Compound titrations were comprised of 9 two-fold dilutions. Cells were incubated for 72 hours before analysis of viability with resazurin. Viability relative to DMSO treated cells was plotted to determine the absolute GI50 values.

DLD-1 = test: In vitro cancer cell line growth inhibition (GI50); assay type: cell-based; conditions: Homo sapiens; DLD-1, Colorectal, 72 hours, resazurin
Method: as §1, §2

SU-DHL-4 = test: In vitro cancer cell line growth inhibition (GI50); assay type: cell-based; conditions: Homo sapiens; SU-DHL-4, DLBCL, 72 hours, resazurin
Method: as §1, §2

H526 = test: In vitro cancer cell line growth inhibition (GI50); assay type: cell-based; conditions: Homo sapiens, NCI-H526; H526, Lung, 72 hours, resazurin
Method: as §1, §2

DB = test: In vitro cancer cell line growth inhibition (GI50); assay type: cell-based; conditions: Homo sapiens, DLBCL, 72 hours, resazurin
Method: as §1, §2

H23 = test: In vitro cancer cell line growth inhibition (GI50); assay type: cell-based; conditions: Homo sapiens, NCI-H23; H23, Lung, 72 hours, resazurin
Method: as §1, §2

THP-1 = test: In vitro cancer cell line growth inhibition (GI50); assay type: cell-based; conditions: Homo sapiens; THP-1, AML, 72 hours, resazurin
Method: as §1, §2

SU-DHL-6 = test: In vitro cancer cell line growth inhibition (GI50); assay type: cell-based; conditions: Homo sapiens; SU-DHL-6, DLBCL, 72 hours, resazurin
Method: as §1, §2

WSU-DLCL-2 = test: In vitro cancer cell line growth inhibition (GI50); assay type: cell-based; conditions: Homo sapiens, WSUDLCL2; WSU-DLCL-2, DLBCL, 72 hours, resazurin
Method: as §1, §2

SU-DHL-10 = test: In vitro cancer cell line growth inhibition (GI50); assay type: cell-based; conditions: Homo sapiens, SU-DHL10; SU-DHL-10, DLBCL, 72 hours, resazurin
Method: as §1, §2

SU-DHL-5 = test: In vitro cancer cell line growth inhibition (GI50); assay type: cell-based; conditions: Homo sapiens; SU-DHL-5, DLBCL, 72 hours, resazurin
Method: as §1, §2

MOLM-13 = test: In vitro cancer cell line growth inhibition (GI50); assay type: cell-based; conditions: Homo sapiens; MOLM-13, AML, 72 hours, resazurin
Method: as §1, §2

143B = test: In vitro cancer cell line growth inhibition (GI50); assay type: cell-based; conditions: Homo sapiens, Osteosarcoma, 72 hours, resazurin
Method: as §1, §2

ZR-75-1 = test: In vitro cancer cell line growth inhibition (GI50); assay type: cell-based; conditions: Homo sapiens; ZR-75-1, Breast, 72 hours, resazurin
Method: as §1, §2

SU-DHL-8 = test: In vitro cancer cell line growth inhibition (GI50); assay type: cell-based; conditions: Homo sapiens; SU-DHL-8, DLBCL, 72 hours, resazurin
Method: as §1, §2

DOHH2 = test: In vitro cancer cell line growth inhibition (GI50); assay type: cell-based; conditions: Homo sapiens, DOHH-2; DOHH2, DLBCL, 72 hours, resazurin
Method: as §1, §2

OCI-LY-19 = test: In vitro cancer cell line growth inhibition (GI50); assay type: cell-based; conditions: Homo sapiens, OCI-LY19; OCI-LY-19, DLBCL, 72 hours, resazurin
Method: as §1, §2

LP1 = test: In vitro cancer cell line growth inhibition (GI50); assay type: cell-based; conditions: Homo sapiens, LP-1; LP1, Multiple myeloma, 72 hours, resazurin
Method: as §1, §2

HT29 = test: In vitro cancer cell line growth inhibition (GI50); assay type: cell-based; conditions: Homo sapiens, HT-29; HT29, Colorectal, 72 hours, resazurin
Method: as §1, §2

ML-2 = test: In vitro cancer cell line growth inhibition (GI50); assay type: cell-based; conditions: Homo sapiens; ML-2, AML, 72 hours, resazurin
Method: as §1, §2

HT = test: In vitro cancer cell line growth inhibition (GI50); assay type: cell-based; conditions: Homo sapiens, DLBCL, 72 hours, resazurin
Method: as §1, §2

A549 = test: In vitro cancer cell line growth inhibition (GI50); assay type: cell-based; conditions: Homo sapiens; A549, Lung, 72 hours, resazurin
Method: as §1, §2

A2780 = test: In vitro cancer cell line growth inhibition (GI50); assay type: cell-based; conditions: Homo sapiens; A2780, Ovarian, 72 hours, resazurin
Method: as §1, §2

OPM2 = test: In vitro cancer cell line growth inhibition (GI50); assay type: cell-based; conditions: Homo sapiens, OPM-2; OPM2, Multiple myeloma, 72 hours, resazurin
Method: as §1, §2

MV4-11 = test: In vitro cancer cell line growth inhibition (GI50); assay type: cell-based; conditions: Homo sapiens; MV4-11, AML, 72 hours, resazurin
Method: as §1, §2

U2932 = test: In vitro cancer cell line growth inhibition (GI50); assay type: cell-based; conditions: Homo sapiens; U2932, DLBCL, 72 hours, resazurin
Method: as §1, §2

KARPAS 422 = test: In vitro cancer cell line growth inhibition (GI50); assay type: cell-based; conditions: Homo sapiens; KARPAS 422, DLBCL, 72 hours, resazurin
Method: as §1, §2

SMILES: Cc1noc2c1-c1ccc(-c3cnn(C)c3)cc1C(c1ccc(Cl)cc1)=N[C@H]2CC(=O)N(C)C [Compound 402]
- EC50 [1]: 0.023 µM
- IC50 (BRD4(BD1)): 0.013 µM
- EC50 ([2]; Homo sapiens): 0.007 µM

SMILES: Cc1ccc(-c2ccc3c(c2)C(c2ccc(Cl)cc2)=N[C@@H](CC(N)=O)c2onc(C)c2-3)cn1 [Compound 403]
- EC50 [1]: 0.036 µM
- IC50 (BRD4(BD1)): 0.028 µM
- EC50 ([2]; Homo sapiens): 0.029 µM

SMILES: Cc1noc(-c2ccc3c(c2)C(c2ccc(Cl)cc2)=N[C@@H](CC(N)=O)c2onc(C)c2-3)n1 [Compound 404, 2-((4S)-6-(4-chlorophenyl)-1-methyl-8-(3-methyl-1,2,4-oxadiazol-5-yl)-4H-benzo[c]isoxazolo[4,5-e]azepin-4-yl)acetamide]
- EC50 [1]: 0.206 µM
- IC50 (BRD4(BD1)): 0.27 µM
- EC50 ([2]; Homo sapiens): 0.036 µM

SMILES: Cc1noc2c1-c1ccc(-c3cnn(C)c3)cc1C(c1ccc(Cl)cc1)=N[C@H]2CC(=O)O [Compound 405]
- EC50 [1]: 0.833 µM
- IC50 (BRD4(BD1)): 0.175 µM
- EC50 ([2]; Homo sapiens): 0.42 µM

Molecules with a lower EC50 [1], results first:

- EC50 [1]: 0.013 µM
- GI50 (KMS11): 0.1 µM
- GI50 (DLD-1): 0.48 µM
- GI50 (SU-DHL-4): 0.15 µM
- GI50 (H526): 0.01 µM
- GI50 (DB): 0.15 µM
- GI50 (H23): 0.21 µM
- GI50 (THP-1): 0.065 µM
- GI50 (SU-DHL-6): 0.06 µM
- GI50 (WSU-DLCL-2): 0.045 µM
- GI50 (SU-DHL-10): 0.1 µM
- GI50 (SU-DHL-5): 0.325 µM
- GI50 (MOLM-13): 0.09 µM
- GI50 (143B): 0.23 µM
- GI50 (ZR-75-1): 0.3 µM
- GI50 (SU-DHL-8): 0.1 µM
- GI50 (DOHH2): 0.06 µM
- GI50 (OCI-LY-19): 0.06 µM
- GI50 (LP1): 0.005 µM
- GI50 (HT29): 0.2 µM
- GI50 (ML-2): 0.06 µM
- GI50 (HT): 0.1 µM
- GI50 (A549): 0.46 µM
- GI50 (A2780): 0.09 µM
- GI50 (OPM2): 0.01 µM
- GI50 (MV4-11): 0.015 µM
- GI50 (U2932): 0.625 µM
- GI50 (KARPAS 422): 0.02 µM
- IC50 (BRD4(BD1)): 0.014 µM
- EC50 ([2]; Homo sapiens): 0.015 µM
SMILES: Cc1noc2c1-c1ccc(-c3cnn(C)c3)cc1C(c1ccc(Cl)cc1)=N[C@H]2CC(N)=O [Compound 401, 2-((4S)-6-(4-Chlorophenyl)-1-methyl-8-(1-methyl-1H-pyrazol-4-yl)-4H-benzo[c]isoxazolo[4,5-e]azepin-4-yl)acetamide]
- tumor volume reduction [3]: Statistically significant reductions in tumor volumes

- EC50 [1]: 0.008 µM
- IC50 (BRD4(BD1)): 0.018 µM
- EC50 [2]: 0.005 µM
SMILES: Cc1noc2c1-c1ccc(-c3cnn(C)c3)cc1C(c1ccc(Cl)cc1)=N[C@H]2CC(N)=O [Compound 400, 2-((4S)-6-(4-chlorophenyl)-1-methyl-8-(1-trideuteromethyl-1H-pyrazol-4-yl)-4H-benzo[c]isoxazolo[4,5-e]azepin-4-yl)-^15N-acetamide]
